# Measurements reported in the supplement of paper PMC10307832.
# What was measured:
# Test in all cases: relative viability (nuclei count vs DMSO), 5 days (fraction); higher = more cells survive
# Sunitinib + AZD7762 = compound: CCN(CC)CCNC(=O)c1c(C)[nH]c(/C=C2\C(=O)Nc3ccc(F)cc32)c1C [Sunitinib] + NC(=O)Nc1cc(-c2cccc(F)c2)sc1C(=O)N[C@H]1CCCNC1 [AZD7762] (partner 0.2 µM)
# Procedure, shortened: (§1)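 Lung cancer cell lines, seeded in 1536-well plates, were treated the following day by pin tool with a single drug or with five library-drug doses (not always all listed) in √10 steps on top of a fixed anchor-drug dose. Cells were fixed and nuclei stained in one step after 5 days, and nuclei were counted. Relative viability is the nuclei count for treated wells divided by that for vehicle wells, reported as medians of duplicate plates.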
# Sunitinib + Luminespib = compound: CCN(CC)CCNC(=O)c1c(C)[nH]c(/C=C2\C(=O)Nc3ccc(F)cc32)c1C [Sunitinib] + CCNC(=O)c1noc(-c2cc(C(C)C)c(O)cc2O)c1-c1ccc(CN2CCOCC2)cc1 [Luminespib] (partner 0.01 µM)
# Procedure, shortened: as §1
# Sunitinib + Tozasertib = compound: CCN(CC)CCNC(=O)c1c(C)[nH]c(/C=C2\C(=O)Nc3ccc(F)cc32)c1C [Sunitinib] + Cc1cc(Nc2cc(N3CCN(C)CC3)nc(Sc3ccc(NC(=O)C4CC4)cc3)n2)n[nH]1 [Tozasertib] (partner 0.1 µM)
# Procedure, shortened: as §1
# Sunitinib + Foretinib = compound: CCN(CC)CCNC(=O)c1c(C)[nH]c(/C=C2\C(=O)Nc3ccc(F)cc32)c1C [Sunitinib] + COc1cc2c(Oc3ccc(NC(=O)C4(C(=O)Nc5ccc(F)cc5)CC4)cc3F)ccnc2cc1OCCCN1CCOCC1 [Foretinib] (partner 0.25 µM)
# Procedure, shortened: as §1
Cell Line,relative viability (Sunitinib + AZD7762; first compound 0.02 µM),relative viability (Sunitinib + AZD7762; first compound 0.06325 µM),relative viability (Sunitinib + AZD7762; first compound 0.2 µM),relative viability (Sunitinib + AZD7762; first compound 0.6325 µM),relative viability (Sunitinib + AZD7762; first compound 2 µM),relative viability (Sunitinib + Luminespib; first compound 0.02 µM),relative viability (Sunitinib + Luminespib; first compound 0.06325 µM),relative viability (Sunitinib + Luminespib; first compound 0.2 µM),relative viability (Sunitinib + Luminespib; first compound 0.6325 µM),relative viability (Sunitinib + Luminespib; first compound 2 µM),relative viability (Sunitinib + Tozasertib; first compound 0.02 µM),relative viability (Sunitinib + Tozasertib; first compound 0.06325 µM),relative viability (Sunitinib + Tozasertib; first compound 0.2 µM),relative viability (Sunitinib + Tozasertib; first compound 2 µM),relative viability (Sunitinib + Foretinib; first compound 0.02 µM),relative viability (Sunitinib + Foretinib; first compound 0.06325 µM),relative viability (Sunitinib + Foretinib; first compound 0.2 µM),relative viability (Sunitinib + Foretinib; first compound 0.6325 µM),relative viability (Sunitinib + Foretinib; first compound 2 µM),relative viability (Sunitinib + Tozasertib; first compound 0.6325 µM)
201T,0.544,0.705,0.688,0.664,0.588,1.05,1.05,1.05,1.08,1.03,0.918,0.948,1.1,0.88,1.01,1.1,1.22,1.17,1.01,
A-427,0.773,0.761,0.777,0.711,0.679,0.923,1.08,1.13,,0.903,0.225,0.233,0.219,0.194,1.03,1.12,1.08,1.1,1.11,0.213
ABC-1,0.77,0.863,0.921,0.865,0.927,0.407,0.609,0.533,0.622,0.861,0.187,0.189,0.172,0.154,1.01,1.07,1.3,1.26,1,0.18
BEN,0.774,0.755,0.815,0.661,0.66,0.414,0.453,0.396,0.53,0.333,0.526,0.426,0.576,0.466,0.598,0.704,0.576,0.665,0.644,0.61
CAL-12T,0.648,0.663,0.65,0.731,0.76,0.364,0.41,0.385,0.369,0.203,0.324,0.302,0.314,0.213,1.07,1.27,1.32,1.03,1.28,0.324
ChaGo-K-1,0.892,0.885,0.984,0.915,0.88,0.587,0.662,0.784,0.709,0.724,0.211,0.209,0.209,0.191,0.852,0.906,1,0.914,0.869,0.237
EKVX,0.755,0.783,0.735,0.688,0.716,0.811,0.918,0.747,0.942,0.936,0.411,0.39,0.476,0.366,0.739,0.752,0.918,1.3,0.892,0.459
EMC-BAC-2,1.08,1.24,1.22,1.27,1.2,1.11,1.2,1.11,1.16,1.14,0.264,0.297,0.308,0.332,0.973,1.08,1.15,1.07,0.969,0.289
EPLC-272H,0.26,0.298,0.301,0.175,0.229,0.364,0.38,0.561,0.582,0.262,0.382,0.333,0.285,0.318,0.702,0.65,,0.771,0.637,0.196
H3255,0.968,0.888,,0.871,0.871,0.944,1.03,,1.05,0.952,0.763,0.879,0.785,0.654,0.782,0.573,0.819,0.861,1.01,0.73
HARA,0.355,0.337,0.582,0.29,0.301,0.67,0.819,0.536,0.882,0.651,0.105,0.148,0.216,0.0991,0.857,1.13,0.97,0.991,0.868,0.076
HCC-15,1.17,1.28,1.37,1.09,1.41,0.251,0.278,0.347,0.255,0.227,0.407,0.371,0.468,0.651,1.07,1.14,1.16,1.13,1.02,0.411
HCC-827,0.249,0.191,0.21,0.174,0.207,0.572,0.377,0.606,0.751,0.554,0.405,0.416,0.449,0.407,1.05,0.958,1.04,1.03,1.07,0.439
HOP-62,0.579,0.675,0.874,0.688,0.85,0.832,0.928,1,1.02,0.919,0.351,0.352,0.383,0.397,0.923,1.21,1.2,1.22,1.18,0.431
LC-2-ad,0.796,0.889,0.983,0.844,0.873,1.09,1.06,1.18,1.04,0.913,0.479,0.484,0.486,0.493,0.868,0.949,0.952,0.99,0.861,0.502
LCLC-97TM1,0.265,0.163,0.234,0.224,0.288,0.597,0.743,,0.794,0.772,0.202,0.214,0.268,0.236,0.926,,1.13,0.991,0.926,0.195
LCLC-103H,0.808,0.786,0.89,0.925,0.851,0.883,1.04,0.966,0.977,1.06,0.459,0.44,0.478,0.514,0.702,1.01,0.922,0.873,0.791,0.44
LK-2,0.35,0.571,0.352,0.414,0.443,0.193,0.213,0.208,0.231,0.2,0.177,0.196,0.167,0.188,1.1,1.56,1.72,1.42,1.24,0.167
LOU-NH91,,0.688,0.879,0.831,0.756,0.332,0.403,0.338,0.357,0.349,0.666,0.732,0.673,0.738,0.939,0.974,1.04,0.998,0.878,0.753
LU99A,0.334,0.311,0.343,0.325,0.368,0.281,0.254,0.281,0.221,0.299,0.296,0.285,0.267,0.273,0.731,0.894,0.931,1.01,0.91,0.273
LXF-289,1.08,1.16,1.14,1.19,1.08,0.635,0.734,0.89,,0.651,0.199,0.182,0.191,0.269,0.979,1.02,1.02,1.03,1.1,0.203
NCI-H23,0.287,0.281,0.36,0.226,0.241,0.214,0.229,0.204,0.214,0.21,,0.37,0.499,0.264,0.875,1.25,1.03,1.1,0.749,0.341
NCI-H322M,0.611,0.559,0.524,0.651,0.64,,0.859,0.966,0.948,0.616,0.452,0.464,0.546,0.42,0.906,,1.14,1.13,0.869,0.547
NCI-H358,0.59,0.596,0.637,0.427,0.449,0.375,0.304,0.564,0.307,0.242,0.114,0.0928,0.123,0.109,0.716,0.774,0.8,0.748,0.527,0.103
NCI-H441,,1.25,1.36,1.24,1.17,0.32,0.275,0.332,0.396,0.339,0.706,0.639,0.652,0.494,0.771,0.953,,1.01,1.04,0.71
NCI-H460,0.653,0.592,0.615,0.659,0.568,0.0352,0.0388,0.0351,0.0528,0.0318,0.427,0.206,0.421,0.104,0.879,1.08,1.03,1.05,1.06,0.292
NCI-H596,,1.12,1.18,,0.858,0.884,1.05,1.09,1.03,0.941,1.01,0.944,0.985,0.705,0.688,0.949,0.779,0.849,0.649,0.912
